Legend:
[1] = system: Beet Armyworm (Spodoptera exigua, LAPHEG); test: Bioassay on Beet Armyworm (BAW), 128-well diet tray assay; assay type: in vivo; settings: 168 h, 50 μg/cm^2 on artificial diet, second instar larvae, 25° C., five to seven days, average of eight wells, read-out: BAW % Control (or Mortality) rating
Protocol: (§1) Example A: Bioassays on Beet Armyworm (Spodoptera exigua, LAPHEG) (“BAW”) and Cabbage Looper (Trichoplusia ni, TRIPNI) (“CL”)
(§2) Certain molecules disclosed in this document were tested against BAW and CL using procedures described in the following examples. In the reporting of the results, the “BAW & CL Rating Table” was used (See Table Section).
Bioassays on BAW were conducted using a 128-well diet tray assay. One to five second instar BAW larvae were placed in each well (3 mL) of the diet tray that had been previously filled with 1 mL of artificial diet to which 50 μg/cm^2 of the test molecule (dissolved in 50 μL of 90:10 acetone-water mixture) had been applied (to each of eight wells) and then allowed to dry. Trays were covered with a clear self-adhesive cover, vented to allow gas exchange, and held at 25° C., 14:10 light-dark for five to seven days. Percent mortality was recorded for the larvae in each well; activity in the eight wells was then averaged. The results are indicated in the table entitled “Table ABC: Biological Results” (See Table Section).

[2] = system: Cabbage Looper (Trichoplusia ni, TRIPNI); test: Bioassay on Cabbage Looper (CL), 128-well diet tray assay; assay type: in vivo; settings: 168 h, 50 μg/cm^2 on artificial diet, second instar larvae, 25° C., five to seven days, average of eight wells, read-out: CL % Control (or Mortality) rating
Protocol: as §1, §2
Bioassays on CL were conducted using a 128-well diet tray assay. One to five second instar CL larvae were placed in each well (3 mL) of the diet tray that had been previously filled with 1 mL of artificial diet to which 50 μg/cm^2 of the test molecule (dissolved in 50 μL of 90:10 acetone-water mixture) had been applied (to each of eight wells) and then allowed to dry. Trays were covered with a clear self-adhesive cover, vented to allow gas exchange, and held at 25° C., 14:10 light-dark for five to seven days. Percent mortality was recorded for the larvae in each well; activity in the eight wells was then averaged. The results are indicated in the table entitled “Table ABC: Biological Results” (See Table Section).

COCc1ccc(C)cc1N1C(=O)CS/C1=N\C(=O)Nc1ccc(CCc2ncn(-c3ccc(OC(F)(F)F)cc3)n2)cc1 [F21, (Z)-1-(3-(2-(Methoxymethyl)-5-methylphenyl)-4-oxothiazolidin-2-ylidene)-3-(4-(2-(1-(4-(trifluoromethoxy)phenyl)-1H-1,2,4-triazol-3-yl)ethyl)phenyl)urea]
mortality at 50 µg/cm2 [1]: 50 to 100%
mortality at 50 µg/cm2 [2]: 50 to 100%

COCc1ccc(C)cc1N1C(=O)CS/C1=N\C(=O)Nc1ccc(CCc2ncn(-c3ccc(OC(F)(F)F)cc3)n2)cc1F [F22, (Z)-1-(2-Fluoro-4-(2-(1-(4-(trifluoromethoxy)phenyl)-1H-1,2,4-triazol-3-yl)ethyl)phenyl)-3-(3-(2-(methoxymethyl)-5-methylphenyl)-4-oxothiazolidin-2-ylidene)urea]
mortality at 50 µg/cm2 [1]: 50 to 100%
mortality at 50 µg/cm2 [2]: 50 to 100%

CCC(C)Oc1ccc(C)cc1N1C(=O)CS/C1=N\C(=O)Nc1ccc(CCc2ncn(-c3ccc(OC(F)(F)F)cc3)n2)cc1F (stereo not shown) [F24, (Z)-1-(3-(2-(sec-Butoxy)-5-methylphenyl)-4-oxothiazolidin-2-ylidene)-3-(2-fluoro-4-(2-(1-(4-(trifluoromethoxy)phenyl)-1H-1,2,4-triazol-3-yl)ethyl)phenyl)urea]
mortality at 50 µg/cm2 [1]: 50 to 100%
mortality at 50 µg/cm2 [2]: 50 to 100%

Cc1ccc(C(C)C)c(N2C(=O)CS/C2=N\C(=O)Nc2ccc(CCc3ncn(-c4ccc(OC(F)(F)F)cc4)n3)cc2C(F)(F)F)c1 [F25, (Z)-1-(3-(2-Isopropyl-5-methylphenyl)-4-oxothiazolidin-2-ylidene)-3-(4-(2-(1-(4-(trifluoromethoxy)phenyl)-1H-1,2,4-triazol-3-yl)ethyl)-2-(trifluoromethyl)phenyl)urea]
mortality at 50 µg/cm2 [1]: 50 to 100%
mortality at 50 µg/cm2 [2]: 50 to 100%

CC(C)c1ccc(C(F)(F)F)cc1N1C(=O)CS/C1=N\C(=O)Nc1ccc(CCc2ncn(-c3ccc(OC(F)(F)F)cc3)n2)cc1F [F27, (Z)-1-(2-Fluoro-4-(2-(1-(4-(trifluoromethoxy)phenyl)-1H-1,2,4-triazol-3-yl)ethyl)phenyl)-3-(3-(2-isopropyl-5-(trifluoromethyl)phenyl)-4-oxothiazolidin-2-ylidene)urea]
mortality at 50 µg/cm2 [1]: 50 to 100%
mortality at 50 µg/cm2 [2]: 50 to 100%

Cc1ccc(C2CC2(F)F)c(N2C(=O)CS/C2=N\C(=O)Nc2ccc(CCc3ncn(-c4ccc(OC(F)(F)F)cc4)n3)cc2)c1 (stereo not shown) [F28, (Z)-1-(3-(2-(2,2-Difluorocyclopropyl)-5-methylphenyl)-4-oxothiazolidin-2-ylidene)-3-(4-(2-(1-(4-(trifluoromethoxy)phenyl)-1H-1,2,4-triazol-3-yl)ethyl)phenyl)urea]
mortality at 50 µg/cm2 [1]: 50 to 100%
mortality at 50 µg/cm2 [2]: 50 to 100%

CC(C)c1ccc(C(F)(F)F)cc1N1C(=O)CS/C1=N\C(=O)Nc1ccc(CCc2ncn(-c3ccc(OC(F)(F)F)cc3)n2)cc1 [F29, (Z)-1-(3-(2-Isopropyl-5-(trifluoromethyl)phenyl)-4-oxothiazolidin-2-ylidene)-3-(4-(2-(1-(4-(trifluoromethoxy)phenyl)-1H-1,2,4-triazol-3-yl)ethyl)phenyl)urea]
mortality at 50 µg/cm2 [1]: 50 to 100%
mortality at 50 µg/cm2 [2]: 50 to 100%

Cc1ccc(C2CC2(F)F)c(N2C(=O)CS/C2=N\C(=O)Nc2ccc(CCc3ncn(-c4ccc(OC(F)(F)F)cc4)n3)cc2F)c1 (stereo not shown) [F30, (Z)-1-(3-(2-(2,2-Difluorocyclopropyl)-5-methylphenyl)-4-oxothiazolidin-2-ylidene)-3-(2-fluoro-4-(2-(1-(4-(trifluoromethoxy)phenyl)-1H-1,2,4-triazol-3-yl)ethyl)phenyl)urea]
mortality at 50 µg/cm2 [1]: 50 to 100%
mortality at 50 µg/cm2 [2]: 50 to 100%

COC(C)c1ccc(C)cc1N1C(=O)CS/C1=N\C(=O)Nc1ccc(CCc2ncn(-c3ccc(OC(F)(F)F)cc3)n2)cc1 (stereo not shown) [F31, (Z)-1-(3-(2-(1-Methoxyethyl)-5-methylphenyl)-4-oxothiazolidin-2-ylidene)-3-(4-(2-(1-(4-(trifluoromethoxy)phenyl)-1H-1,2,4-triazol-3-yl)ethyl)phenyl)urea]
mortality at 50 µg/cm2 [1]: 50 to 100%
mortality at 50 µg/cm2 [2]: 50 to 100%

Cc1ccc(C(C)C)c(N2C(=O)CS/C2=N\C(=O)Nc2ccc(CCc3ncn(-c4ccc(OC(F)(F)F)cc4)n3)cn2)c1 [F32, (Z)-1-(3-(2-Isopropyl-5-methylphenyl)-4-oxothiazolidin-2-ylidene)-3-(5-(2-(1-(4-(trifluoromethoxy)phenyl)-1H-1,2,4-triazol-3-yl)ethyl)pyridin-2-yl)urea]
mortality at 50 µg/cm2 [1]: 50 to 100%
mortality at 50 µg/cm2 [2]: 50 to 100%

Cc1ccc(C(C)C)c(N2C(=O)CS/C2=N\C(=O)Nc2ccc(CCc3ncn(-c4ccc(OC(F)(F)F)cn4)n3)cn2)c1 [F33, (Z)-1-(3-(2-Isopropyl-5-methylphenyl)-4-oxothiazolidin-2-ylidene)-3-(5-(2-(1-(5-(trifluoromethoxy)pyridin-2-yl)-1H-1,2,4-triazol-3-yl)ethyl)pyridin-2-yl)urea]
mortality at 50 µg/cm2 [1]: 50 to 100%
mortality at 50 µg/cm2 [2]: 50 to 100%

Cc1ccc(C(C)C)c(N2C(=O)CS/C2=N\C(=O)Nc2ccc(CCc3ncn(-c4ncc(C(F)(F)F)cc4Cl)n3)cc2)c1 [F34, (Z)-1-(4-(2-(1-(3-Chloro-5-(trifluoromethyl)pyridin-2-yl)-1H-1,2,4-triazol-3-yl)ethyl)phenyl)-3-(3-(2-isopropyl-5-methylphenyl)-4-oxothiazolidin-2-ylidene)urea]
mortality at 50 µg/cm2 [1]: 0%
mortality at 50 µg/cm2 [2]: 50 to 100%

O=C(/N=C1\SCC(=O)N1C1CCCCC1)Nc1ccc(CCc2ncn(-c3ccc(OC(F)(F)F)cc3)n2)cc1 [F35, (Z)-1-(3-Cyclohexyl-4-oxothiazolidin-2-ylidene)-3-(4-(2-(1-(4-(trifluoromethoxy)phenyl)-1H-1,2,4-triazol-3-yl)ethyl)phenyl)urea]
mortality at 50 µg/cm2 [1]: 50 to 100%
mortality at 50 µg/cm2 [2]: 50 to 100%

Cc1ccc(C(C)C)c(-n2ccs/c2=N\C(=O)Nc2ccc(CCc3ncn(-c4ccc(OC(F)(F)F)cc4)n3)cc2)c1 [F36, (Z)-1-(3-(2-Isopropyl-5-methylphenyl)thiazol-2(3H)-ylidene)-3-(4-(2-(1-(4-(trifluoromethoxy)phenyl)-1H-1,2,4-triazol-3-yl)ethyl)phenyl)urea]
mortality at 50 µg/cm2 [1]: 50 to 100%
mortality at 50 µg/cm2 [2]: 50 to 100%

Cc1ccc(C(C)C)c(-n2ccs/c2=N\C(=O)Nc2ccc(CCc3ncn(-c4ccc(OC(F)(F)F)cc4)n3)cc2F)c1 [F37, (Z)-1-(2-Fluoro-4-(2-(1-(4-(trifluoromethoxy)phenyl)-1H-1,2,4-triazol-3-yl)ethyl)phenyl)-3-(3-(2-isopropyl-5-methylphenyl)thiazol-2(3H)-ylidene)urea]
mortality at 50 µg/cm2 [1]: 50 to 100%
mortality at 50 µg/cm2 [2]: 50 to 100%

Cc1ccc(C(C)C)c(N2C(=O)CS/C2=N\C(=O)Nc2ccc(/C=C/c3ncn(-c4ccc(OC(F)(F)F)cc4)n3)c(C)c2)c1 [F39, 1-((Z)-3-(2-Isopropyl-5-methylphenyl)-4-oxothiazolidin-2-ylidene)-3-(3-methyl-4-((E)-2-(1-(4-(trifluoromethoxy)phenyl)-1H-1,2,4-triazol-3-yl)vinyl)phenyl)urea]
mortality at 50 µg/cm2 [1]: 50 to 100%
mortality at 50 µg/cm2 [2]: 50 to 100%

COc1cc(NC(=O)/N=C2\SCC(=O)N2c2cc(C)ccc2C(C)C)ccc1/C=C/c1ncn(-c2ccc(OC(F)(F)F)cc2)n1 [F40, 1-((Z)-3-(2-Isopropyl-5-methylphenyl)-4-oxothiazolidin-2-ylidene)-3-(3-methoxy-4-((E)-2-(1-(4-(trifluoromethoxy)phenyl)-1H-1,2,4-triazol-3-yl)vinyl)phenyl)urea]
mortality at 50 µg/cm2 [1]: 50 to 100%
mortality at 50 µg/cm2 [2]: 50 to 100%

Cc1ccc(F)c(N2C(=O)CS/C2=N\C(=O)Nc2ccc(/C=C/c3ncn(-c4ccc(OC(F)(F)F)cc4)n3)cc2)c1 [F41, 1-((Z)-3-(2-Fluoro-5-methylphenyl)-4-oxothiazolidin-2-ylidene)-3-(4-((E)-2-(1-(4-(trifluoromethoxy)phenyl)-1H-1,2,4-triazol-3-yl)vinyl)phenyl)urea]
mortality at 50 µg/cm2 [1]: 50 to 100%
mortality at 50 µg/cm2 [2]: 50 to 100%

COc1ccc(C)cc1N1C(=O)CS/C1=N\C(=O)Nc1ccc(/C=C/c2ncn(-c3ccc(OC(F)(F)F)cc3)n2)cc1 [F42, 1-((Z)-3-(2-Methoxy-5-methylphenyl)-4-oxothiazolidin-2-ylidene)-3-(4-((E)-2-(1-(4-(trifluoromethoxy)phenyl)-1H-1,2,4-triazol-3-yl)vinyl)phenyl)urea]
mortality at 50 µg/cm2 [1]: 50 to 100%
mortality at 50 µg/cm2 [2]: 50 to 100%

Cc1ccc(C(F)(F)F)c(N2C(=O)CS/C2=N\C(=O)Nc2ccc(/C=C/c3ncn(-c4ccc(OC(F)(F)F)cc4)n3)cc2)c1 [F43, 1-((Z)-3-(5-Methyl-2-(trifluoromethyl)phenyl)-4-oxothiazolidin-2-ylidene)-3-(4-((E)-2-(1-(4-(trifluoromethoxy)phenyl)-1H-1,2,4-triazol-3-yl)vinyl)phenyl)urea]
mortality at 50 µg/cm2 [1]: 50 to 100%
mortality at 50 µg/cm2 [2]: 50 to 100%

— patent publication US9661854B2, “Molecules having pesticidal utility, and intermediates, compositions, and processes, related thereto” (Dow AgroSciences LLC, priority 2015, dated 2017)
